{
  "source": "patent US20060135587A1",
  "about": "“Method and compounds for promoting healing and reducing inflammation” (priority 2002, published 2006)",
  "key": {"[1]": {"tested_on": "gastric and duodenal ulcer", "experiment": "Clinical trial in gastric and duodenal ulcer", "assay_type": "in vivo, human", "conditions": "three 0.2 g tablets per day orally for three weeks", "description": "A clinical trial of the effect of Compound 2 on gastric and duodenal ulcer was carried out in several gastroenterological clinics in Russia. A total of 167 patients, 30 to 75 years old, was studied; of these 93 had duodenal ulcers and 74 had gastric ulcers. The results were monitored by gastroscopy at weekly intervals. Each patient continued to receive the treatment which s/he had been given prior to commencement of the trial. Compound 2 was administered in addition to the previous treatment. Compound 2 was given orally as three 0.2 g tablets per day over a period of three weeks, ie a total dose of […] for the treatment course, Compound 2 healed 80% of all the duodenal ulcers treated, and 54% of all the gastric ulcers treated. […] The effect of Compound 2 was compared with those of a placebo, or cimetidine. Even better results were obtained when Compound 2 was administered together with conventional therapy. […] Following termination of treatment with Compound 2 no ulceration was observed, ie there was no sign of the abstinence syndrome which is typically seen with H2-blockers and hormones. Compound 2 was an effective therapeutic agent with a pronounced reparative effect on erosive and ulcerating injuries of the gastroduodenal area."}, "[2]": {"tested_on": "cryogenic injury of the oral mucosa", "experiment": "Healing of mouth ulcers caused by cryogenic injury in rats", "assay_type": "in vivo", "conditions": "50 mg/kg; morphological analysis", "description": "A model of mouth ulcers using ulcers caused by cryogenic injury of the inner surface of the cheek was used for this purpose. Tests were performed on 110 male rats weighing 180-200 g, with 10 animals in each group. Ulcers were created in experimental animals by pressing a metal rod of 2.5 mm in diameter cooled in liquid nitrogen to the mucosa for 10 seconds under ether anaesthesia. Animals were kept in separate cages, with normal food and water ad libitum. Treatment was administered by spraying of the mucous membrane of the mouth, 24 hours after wounding and then daily until healing was complete. Compound 2 was administered to the animals at a dose of 50 mg/kg (2 ml of aqueous solution). The following groups of animals were used:\nThe progress of wound healing was examined morphologically on days 1, 3, 7 and 14. On the day 3 the lesions were progressively worse, resulting in the growth of necrotic changes with the formation of a wide necrotic zone at the bottom of the wound, and growth and expansion of acute inflammation involving the muscle, skin and mucosa beyond the wound area. On day 7, the wounds in half of the animals were partially cleared of the necrotic mass, accompanied by the development of granulation tissue at the bottom of the wound and in the adjacent mucosa. […]"}, "[3]": {"tested_on": "neurogenic dystrophy of the myocardium", "experiment": "Myocardial infarction model (electrostimulation), enzymes in rabbit myocardium", "assay_type": "in vivo, rabbits", "conditions": "10 mg/kg; 48 hours after electrostimulation", "source_text": "The effect of Compound 2 on myocardial tissue in an experimental model of myocardial infarction was examined. In this model system neurogenic dystrophy of the myocardium was induced in rats or rabbits by electrical stimulation of the reflexogenic zone of the aortic arch by implanted electrodes for a period of three hours. […] These changes are accompanied by changes in biochemical indicators such as creatine phosphate, cAMP, and calcium ion concentrations, and changes in the activity of redox enzymes such as succinate dehydrogenase, lactate dehydrogenase, and glucose-6-phosphate dehydrogenase. At a later stage organic lesions of the myocardium such as necrotic and fibrosclerotic foci can be observed.\nThe effect of Compound 2 given intraperitoneally or orally on these indicators was examined in rats and rabbits following electrostimulation as described above. The effects on levels of creatine phosphate in rat myocardial are shown in Table 19, and the effects on adenosine triphosphatase (ATPase), succinate dehydrogenase and glucose-6-phosphate dehydrogenase rabbit myocardium are shown in Table 20. The effects on cAMP and Ca^++ levels in rabbit myocardial tissue are shown in FIG. 5, and effects on creatine kinase in rabbit myocardium and blood and the levels of creatine phosphate in myocardium are shown in FIG. 6."}, "[4]": {"tested_on": "full-thickness skin wounds", "experiment": "Morphological assessment of the wound healing stages", "assay_type": "in vivo, rats", "conditions": "Day 15", "source_text": "An important indicator of wound healing is the morphology and epithelialization of the wound surface (Sarkisov et al, 1981). Samples were taken from experimental animals on the fifth, tenth and fifteenth days of the study described in Example 13, which roughly correspond to the three wound healing stages: the first traumatic inflammation stage is complete by the fifth day, the granulation tissue development stage is complete by the tenth day, and cicatrisation and epithelialization take place from the fifteenth to twentieth days. The results are illustrated in FIG. 1.\nA comparative assessment of the healing of a full-thickness wound was performed on the basis of a set of morphological indicators characterising the regeneration process: […]"}, "[5]": {"tested_on": "aseptic full-thickness skin wounds", "experiment": "Healing of aseptic full-thickness skin wounds in rats, topical treatment", "assay_type": "in vivo", "source_text": "To heal successfully, wounds should be treated with regard to specific features of the various stages of healing process of the wound (Kuzin et al, 1981). The wound-healing effect of salts of N-substituted 1,3-dialkyl-4,5-bis(carbamoyl)imidazolium derivatives was studied in a model of aseptic full-thickness skin wounds in rats (Zapadnyuk et al, 1983). The effect of 10% 1-ethyl-3-methyl-4,5-bis(N-methylcarbamoyl)imidazolium benzensulfonate in a lanolin ointment base was compared to that of Solcoseryl gel and Spasatel balm.\nAseptic full-thickness skin wounds were created in rats under light ether anaesthesia. At a site on the animal's back where the animal could not lick the wound, the skin was shaved, and a circular piece of skin approximately 2.5 cm^2 area was excised with scissors. Following recovery from anaesthesia the animals were kept in separate cages, with normal food and water ad libitum. A total of 100 rats weighing from 200 to 250 g were used, with 20 rats in each group. The groups were as follows:\nTreatment was performed 24 hours after the wounding by applying […] once a day in a proportion of 80 mg of ointment per 1 cm^2 of the wound area (8 mg of substance per 1 cm^2) and then daily until healing was complete.\nAnimals were examined at 5, 10, 15 and 20 days for the following parameters; wound size and wound healing time; weight gain, peripheral blood indicators (total leucocyte count, differential leucocyte count, and erythrocyte sedimentation rate); and biochemical serum indicators (total protein, albumin, globulin, and globulin fractions); and macroscopic and microscopic assessment of wounds. The average complete wound healing period was 16.8±1.9 days for Compound 2, compared to 23.5±2.2 days for Spasatel and 24.0±2.4 days for Solcoseryl.\nFor measurement of wound size, a sterile object plate was laid over the wound, and its contour was outlined with a marker. The wounds were photographed, the wound outlines were scanned, and their area was calculated using an in-house computer program."}},
  "note": "Marks after values point to notes of the source that are not given here.",
  "data": [
    {"smiles": "CC[n+]1cn(C)c(C(=O)NC)c1C(=O)NC.O=S(=O)([O-])c1ccccc1", "note": "[Compound 2, 1-methyl-3-ethyl-4,5-bis(N-methylcarbamoyl)-imidazolium benzenesulfonate]", "values": [
      {"measurement": "side effects", "setting": "[1]", "result": "No side effects were observed"},
      {"measurement": "duodenal ulcers healed", "setting": "[1]; added to previous treatment", "result": 80, "unit": "%"},
      {"measurement": "gastric ulcers healed", "setting": "[1]; added to previous treatment", "result": 54, "unit": "%"},
      {"measurement": "healing of cryogenic injury of the oral mucosa compared to untreated controls", "setting": "[2]", "result": "more pronounced, earlier and more complete healing"},
      {"measurement": "ATPase", "setting": "[3]", "result": "0.47 ± 0.13", "unit": "µM/mg/min"},
      {"measurement": "Glucose-6-phosphate dehydrogenase (optical density units)", "setting": "[3]", "result": "6.2 ± 0.7", "unit": "optical density units"},
      {"measurement": "Succinate dehydrogenase (optical density units)", "setting": "[3]", "result": "44.2 ± 6.7", "unit": "optical density units"},
      {"measurement": "animals showing complete epithelialization of the wound", "setting": "[4]", "result": 60, "unit": "%"},
      {"measurement": "animals showing incomplete epithelialization", "setting": "[4]", "result": 40, "unit": "%"},
      {"measurement": "Wound area (% of area before treatment)", "setting": "[5]; 5th day, topical, test compound as 10% ointment", "result": 84.0, "unit": "%"},
      {"measurement": "wound area on the fifteenth day", "setting": "[5]; 10% Compound 2 ointment", "result": 0.4, "unit": "%"},
      {"measurement": "Wound area (% of area before treatment)", "setting": "[5]; 10th day, topical, test compound as 10% ointment", "result": 8.1, "unit": "%"},
      {"measurement": "Wound area (% of area before treatment)", "setting": "[5]; 15th day, topical, test compound as 10% ointment", "result": 0.4, "unit": "%"},
      {"measurement": "Wound area (% of area before treatment)", "setting": "[5]; 20th day, topical, test compound as 10% ointment", "result": 0.1, "unit": "%"},
      {"measurement": "Epithelialization (duration in days)", "setting": "[5]; Table 8, topical once a day, Compound 2 as 10% ointment in lanolin", "result": "16.8 ± 1.9*^.** days"},
      {"measurement": "Epithelialization period", "setting": "[5]; Table 10, topical, test compound as 10% ointment", "result": "16.8 ± 1.9"},
      {"measurement": "average complete wound healing period", "setting": "[5]; text b167", "result": "16.8 ± 1.9", "unit": "days"}
    ]}
  ]
}
